The target of the experiment is T1, hNLRP3 (Homo sapiens, UniProt Q96P20).
T1 construct: THP-1 cells were purchased from the American Type Culture Collection; host or cells: THP-1 cells, PMA-differentiated
T1 sequence (Q96P20 whole entry): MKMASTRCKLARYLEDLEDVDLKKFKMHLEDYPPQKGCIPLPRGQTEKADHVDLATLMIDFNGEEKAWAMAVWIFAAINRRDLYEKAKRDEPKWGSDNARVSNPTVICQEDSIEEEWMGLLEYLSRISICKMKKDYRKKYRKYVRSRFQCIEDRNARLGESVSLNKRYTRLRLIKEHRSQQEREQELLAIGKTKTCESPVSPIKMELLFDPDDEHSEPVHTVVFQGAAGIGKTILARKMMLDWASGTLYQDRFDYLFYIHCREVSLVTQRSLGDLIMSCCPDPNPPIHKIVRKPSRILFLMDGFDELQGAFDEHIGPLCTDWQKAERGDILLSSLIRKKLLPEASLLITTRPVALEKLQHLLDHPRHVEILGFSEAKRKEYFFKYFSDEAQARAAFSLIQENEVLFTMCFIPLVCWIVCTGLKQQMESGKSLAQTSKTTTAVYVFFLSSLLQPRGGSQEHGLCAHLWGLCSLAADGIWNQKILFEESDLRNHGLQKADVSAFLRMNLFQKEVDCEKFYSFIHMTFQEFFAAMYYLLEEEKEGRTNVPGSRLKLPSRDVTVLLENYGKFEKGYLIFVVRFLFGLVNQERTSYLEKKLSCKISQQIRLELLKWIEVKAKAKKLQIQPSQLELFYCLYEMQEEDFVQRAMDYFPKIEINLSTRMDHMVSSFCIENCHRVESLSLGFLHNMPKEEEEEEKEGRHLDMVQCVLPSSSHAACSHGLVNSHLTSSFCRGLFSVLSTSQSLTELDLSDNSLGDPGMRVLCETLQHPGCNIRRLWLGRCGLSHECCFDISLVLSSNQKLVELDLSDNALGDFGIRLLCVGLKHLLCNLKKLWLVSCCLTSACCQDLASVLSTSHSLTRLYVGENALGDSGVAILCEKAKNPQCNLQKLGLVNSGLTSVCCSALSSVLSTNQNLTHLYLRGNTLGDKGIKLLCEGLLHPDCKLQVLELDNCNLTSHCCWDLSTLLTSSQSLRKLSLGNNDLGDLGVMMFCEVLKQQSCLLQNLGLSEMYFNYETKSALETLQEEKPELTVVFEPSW
Description: Measurement of IL-1β production in PMA-differentiated THP-1 cells (hNLRP3 agonist; ELISA, alternative and hTRF procedures). In kind it is cell-based. Summed up: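 Supernatant IL-1β was quantified by ELISA in two procedures and by hTRF (kit antibodies at 1:40) in a third. THP-1 cells were first differentiated with PMA ([…] for 24 h; 20 μg/ml overnight; 50 ng/ml overnight), then incubated in 2% FBS RPMI with compounds for 4 h, 2 h and 2 h, respectively, at 1% DMSO or a 10 μM top concentration.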
As usually defined, the EC50 is the concentration needed to bring the measured effect to its halfway point. A low value points to greater potency. Take `CCN(Cc1nc2c(N)nc3cc(-c4cc[nH]n4)ccc3c2[nH]1)C(=O)c1cccn1C` [Compound 446, N-{[4-amino-7-(1H-pyrazol-3-yl)-1H-imidazo[4,5-c]quinolin-2-yl]methyl}-N-ethyl-1-methyl-1H-pyrrole-2-carboxamide]: the EC50 worked out at 0.67 µM. Next, `CCN(Cc1nc2c(N)nc3cc(-c4cc[nH]n4)ccc3c2[nH]1)C(=O)CCc1ccccc1` [Compound 447, N-{[4-amino-7-(1H-pyrazol-3-yl)-1H-imidazo[4,5-c]quinolin-2-yl]methyl}-N-ethyl-3-phenylpropanamide]: 1.5 µM; `CCN(Cc1nc2c(N)nc3cc(-c4cc[nH]n4)ccc3c2[nH]1)C(=O)c1ccccc1Cl` [Compound 449, N-{[4-amino-7-(1H-pyrazol-3-yl)-1H-imidazo[4,5-c]quinolin-2-yl]methyl}-2-chloro-N-ethylbenzamide]: 0.9 µM. As for `CCN(Cc1nc2c(N)nc3cc(-c4cc[nH]n4)ccc3c2[nH]1)C(=O)c1ccncc1` [Compound 450, N-{[4-amino-7-(1H-pyrazol-3-yl)-1H-imidazo[4,5-c]quinolin-2-yl]methyl}-N-ethylpyridine-4-carboxamide], the figure is 4.5 µM; as for `CCN(Cc1nc2c(N)nc3cc(-c4cc[nH]n4)ccc3c2[nH]1)C(=O)c1cn(C)c2ccccc12` [Compound 451, N-{[4-amino-7-(1H-pyrazol-3-yl)-1H-imidazo[4,5-c]quinolin-2-yl]methyl}-N-ethyl-1-methyl-1H-indole-3-carboxamide], 1.3 µM. Next, `CCN(Cc1nc2c(N)nc3cc(-c4cc[nH]n4)ccc3c2[nH]1)C(=O)c1ccc(Cl)cc1` [Compound 452, N-{[4-amino-7-(1H-pyrazol-3-yl)-1H-imidazo[4,5-c]quinolin-2-yl]methyl}-4-chloro-N-ethylbenzamide]: 1.2 µM.

For the origin of these results see patent publication US12351580B2, “NLRP3 modulators” (Innate Tumor Immunity, Inc., priority 2017, dated 2025).
